Data on 2 compounds can be found in patent publication US6569638B1, “Method for screening compounds for the treatment of neoplasia” (Cell Pathways, Inc, priority 2000, dated 2003).

Test [1] concerns the target T1, GST-cGB-PDE5 fusion protein (cGMP binding sites of human PDE5A) (Homo sapiens, UniProt O76074).
T1 construct: made in house; host or cells: E. coli BL21 (DE3)
The experiment in a line: cGMP binding assay (3H-cGMP competition). The following applies: 3H-cGMP 2 μM, 22° C., 1 hour.

Test [2] deals with JNK1 in SW480 colon cancer cells. The experiment in a line: JNK1 immunoprecipitation in vitro kinase assay with GST-c-Jun(1-79). Type of test: cell-based, human. The following applies: SW480 cells, one hour; sulindac sulfide 50-500 μM, exisulind 100-600 μM, Compound A 0.1-5 μM, Compound B 1-50 μM. The procedure: The cells were lysed, JNK1 immunoprecipitated with an anti-JNK1 antibody, and the immunoprecipitate (“IP”) assayed for in vitro kinase activity with GST-c-Jun(1-79) as the substrate. The experiments were repeated three times with similar results. Fold activation was measured using a Phosphor Imager.
FIG. 1B: SW480 cells were treated with Compound A (1 μM) for the indicated time periods and in vitro JNK1 kinase activity was determined as described above.
FIG. 2A SW480 cells were treated with either DMSO (−) or Compound A, 0.1 μM; dbcGMP, 500 μM; YC-1, 50 μM; MY-5445, 50 μM; dipyridamole, 10 μM or dbcAMP, 500 μM for one hour. The cells were lysed, JNK1 immunoprecipitated, and the IP assayed for in vitro kinase activity as described in FIG. 1A.
FIG. 2B SW480 cells were pre-treated with either DMSO, KT5720 (2 μM) or Rp-8-pCPT-cGMPS (2 μM) for 2 hours and then treated with Compound B (0, 1 or 10 μM) for one hour. The cells were lysed and assayed for JNK1 activation in the IP as described above.
These concentrations were chosen since they provided optimal induction of apoptosis. Endogenous JNK1 was immunoprecipitated with anti-JNK1 antibody and in vitro kinase assays were performed with GST-c-Jun(1-79) as the substrate. […]
However, the precise role of PKG in signal transduction pathways is not known. […] As a control, KT5720 was used as a protein kinase A (“PKA”)-specific inhibitor. SW480 cells were treated with either DMSO, KT5720 (2 μM) or Rp-8-pCPT-cGMPS (2 μM) for 2 hours and then treated with either DMSO or Compound B (1 or 10 μM) for one hour. Cell extracts were collected and assayed for JNK1 activation.

A further test concerns caspase-3 in SW480 cells. Description: Caspase-3 activity with Ac-DEVD-AFC substrate. Format: cell-based, human. The following applies: 24 hours, sulindac sulfide 200 μM, exisulind 600 μM, Compound A 1 μM, Compound B 10 μM. The procedure:
The cells were lysed and the extracts assayed for caspase-3 activity using Ac-DEVD-AFC as the substrate, in the presence or absence of the caspase-3 inhibitor Ac-DEVD-CHO. Caspase-3 activity was calculated by subtracting the AFC fluorescence (excitation; 400 nm, emission; 505 nm) in the presence of Ac-DEVD-CHO from the AFC fluorescence in the absence of Ac-DEVD-CHO.
Protein extracts were then prepared and caspase-3 activity was measured with Ac-DEVD-AFC as the substrate, in the presence or absence of the caspase-3 inhibitor Ac-DEVD-CHO. […] Similar findings were obtained with HCT116 and HT29 cells (data not shown).

The test system of test [3] is panel of cultured human cell lines. Description: Neutral red growth inhibition, panel of cultured human cell lines. Type of test: cell-based. The settings on record: five days continuous treatment, read-out: GI50 calculated for all cell lines. As to the method:
(§1) Compound B's activity is not confined to activity against colon cancer cell lines or animal models of colon cancer. It has a broad range of anti-neoplastic effects in various neoplastic cell lines. Various types of human cancer cell lines were propagated under sterile conditions in RPMI 1640 medium with 10% fetal bovine serum, 2 mM L-glutamine and sodium bicarbonate. To determine growth inhibitory effects of Compound B, cells were seeded in 96-well plates at a density of 1000 cells per well. Twenty-four hours after plating, the cells were dosed with various concentrations of the free base of Compound B solubilized in DMSO (final concentration 0.1%). The effect of the drug on tumor cell growth was determined using the neutral red cytotoxicity assay following five days of continuous treatment. Neutral red is a dye that is selectively taken up by viable cells by an ATP-dependent transport mechanism.

The next test concerns SW-480 cell line. The experiment in a line: Tumor cell growth inhibition. Type of test: cell-based, human. The text has this: In an alternate embodiment, the method of the present invention involves further determining whether the compound reduces the growth of tumor cells. Various cell lines can be used in the sample depending on the tissue to be tested. For example, these cell lines include: SW-480—colonic adenocarcinoma; HT-29—colonic adenocarcinoma, A-427—lung adenocarcinoma carcinoma; MCF-7—breast adenocarcinoma; and UACC-375—melanoma line; and DU145—prostrate carcinoma. Cytotoxicity data obtained using these cell lines are indicative of an inhibitory effect on neoplastic lesions. These cell lines are well characterized, and are used by the United States National Cancer Institute in their screening program for new anti-cancer drugs.
A compound's ability to inhibit tumor cell growth can be measured using the HT-29 human colon carcinoma cell line obtained from ATCC. […] After six days in culture, the cells are fixed by the addition of cold trichloroacetic acid to a final concentration of 10% and protein levels are measured using the sulforhodamine B (SRB) calorimetric protein stain assay as previously described by Skehan, P., Storeng, R., Scudiero, D., Monks, A., McMahon, J., Vistica, D., Warren, J. T., Bokesch, H., Kenney, S., and Boyd, M. R., “New Colorimetric Assay For Anticancer-Drug Screening,” J. Natl. Cancer Inst. […]
Preferably, an IC50 value is determined and used for comparative purposes. […]

A further test deals with RPMI-8226. Description: Neutral red growth inhibition. The settings on record: RPMI-8226, Myeloma, HCl salt. Format: cell-based, human. The procedure:
as §1, with “Twenty-four hours after plating, the cells were dosed with various concentrations of the free base of Compound B solubilized in DMSO (final concentration 0.1%).” left out

T1 sequence (O76074 46-539 limits assumed): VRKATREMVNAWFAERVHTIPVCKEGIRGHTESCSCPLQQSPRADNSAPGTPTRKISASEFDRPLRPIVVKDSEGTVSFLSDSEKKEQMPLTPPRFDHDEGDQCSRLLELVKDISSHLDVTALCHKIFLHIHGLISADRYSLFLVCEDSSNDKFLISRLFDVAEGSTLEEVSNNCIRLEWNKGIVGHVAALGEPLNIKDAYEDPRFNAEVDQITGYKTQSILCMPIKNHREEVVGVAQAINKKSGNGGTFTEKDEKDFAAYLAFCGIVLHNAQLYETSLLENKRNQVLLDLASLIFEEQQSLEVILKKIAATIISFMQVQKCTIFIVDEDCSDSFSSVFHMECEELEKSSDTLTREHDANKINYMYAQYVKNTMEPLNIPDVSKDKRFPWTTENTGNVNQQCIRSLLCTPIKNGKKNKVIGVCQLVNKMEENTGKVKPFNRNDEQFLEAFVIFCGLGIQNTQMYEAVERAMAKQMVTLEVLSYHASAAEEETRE

In the case of `CC1=C(CC(=O)O)c2cc(F)ccc2/C1=C\c1ccc(S(C)(=O)=O)cc1` [exisulind, 5-fluoro-2-methyl-1-(p-methylsulfonylbenzylidene)-3-indenylacetic acid], in test [1], the “competition with cGMP for the cGMP binding sites of GST-cGB-PDE5” value was “None of the PDE5 inhibitors showed any competition with cGMP”. The JNK1 activation entry in test [2] is given as “activated JNK1”. Besides, in the test on caspase-3 in SW480 cells, the caspase-3 activation entry is given as “led to activation of caspase-3”.

As usually defined, the GI50 is the concentration giving 50% growth inhibition. For orientation: IC50 means the concentration needed to halve the response being measured. Read a high IC50 as weaker potency. As to `CC1=C(CC(=O)NCc2ccccc2)c2cc(F)ccc2/C1=C\c1ccncc1.Cl` [Compound B, (Z)-5-fluoro-2-methyl-(4-pyridylidene)-3-(N-benzyl)indenylacetamide hydrochloride], in test [1], the “competition with cGMP for the cGMP binding sites of GST-cGB-PDE5” value was “None of the PDE5 inhibitors showed any competition with cGMP”. For the same compound, the figures for the GI50 (in test [3]; in the test with RPMI-8226) were 1000 to 2000 nM and 1200 nM, respectively. In addition, the JNK1 activation entry in test [2] was “activated JNK1”. In the test with SW-480 cell line, this compound yielded an IC50 of 700 nM. Moreover, in the test with caspase-3 in SW480 cells, the caspase-3 activation entry was “led to activation of caspase-3”.
